Experimental data: patent US12247010B2, “Tubulin inhibitors” (LIN BIOSCIENCE PTY LTD., priority 2017, dated 2025)

Tests used:
tubulin = assay: Tubulin polymerization assay (Cytoskeleton, Inc. inhibitor screening protocol); format: biochemical; conditions: 3 μM, 37C, compared to DMSO control
Procedure: Example 4. Tubulin Polymerization Assay
Compounds described herein were tested in a tubulin polymerization inhibition assay using the general manufacturer's protocol for inhibitor screening (Cytoskeleton, Inc. BK01 IP). DMSO was used as a negative control, and vinblastine was tested as a positive control. All compounds were tested at a concentration of 3 μM, and incubation was carried out at 37C for 60 minutes. Results were calculated as a percent inhibition (compared to DMSO control) after 60 min of incubation, the results of which are shown in Table 3.

U87MG cells = assay: Cytotoxicity assay (cell viability, CellTiter 96 Aqueous MTS); format: cell-based; conditions: Homo sapiens, U-87 MG, 72 h, 72 hours incubation, starting concentration 50 uM, 9 point half log dilution, average where tested repeatedly
How it was run: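 U87MG cells plated at 7×10^3 cells/well overnight, then treated 72 h with 9-point half-log dilutions from a 50 uM starting concentration. Viability measured with CellTiter 96 Aqueous MTS; IC50 calculated from viability.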

Row | Compound | % Tubulin Polymerization at 60 min (tubulin) | IC50 (U87MG cells)
1 | Cc1ncccc1C(=O)NCCCc1ccc(-c2ccccc2F)cc1 [Compound 81, N-(3-(2′-fluoro-[1,1′-biphenyl]-4-yl)propyl)-2-methylnicotinamide] | A (A is < 20%) | < 500 nM
2 | Nc1ncc(C(=O)NCCCc2ccc(-c3ccccc3F)cc2)cn1 [Compound 96] | A (A is < 20%) | < 500 nM
3 | COc1ccc(CC(=O)NCCCc2ccc(-c3ccccc3F)cc2)cc1 [Compound 101, N-(3-(2′-fluoro-[1,1′-biphenyl]-4-yl)propyl)-2-(4-methoxyphenyl)acetamide] | C (C is 41-60%) | < 500 nM
4 | O=C(NCCCc1ccc(-c2ccccc2F)cc1)c1ccc2[nH]cnc2c1 [Compound 136, N-(3-(2′-fluoro-[1,1′-biphenyl]-4-yl)propyl)-1H-benzo[d]imidazole-5-carboxamide] | A (A is < 20%) | < 500 nM
5 | Cc1ncc(C(=O)NCCCc2ccc(-c3ccccc3F)cc2)s1 [Compound 138, N-(3-(2′-fluoro-[1,1′-biphenyl]-4-yl)propyl)-2-methylthiazole-5-carboxamide] | A (A is < 20%) | < 500 nM
6 | O=C(CCCc1ccc(-c2ccc3[nH]c(=O)ccc3c2)cc1)Nc1cccnc1 [Compound 207, 4-(4-(2-oxo-1,2-dihydroquinolin-6-yl)phenyl)-N-(pyridin-3-yl)butanamide] | D (D is 61-80%) | < 500 nM
7 | O=C(CCCc1ccc(-c2ccc3cnccc3c2)cc1)Nc1cccnc1 [Compound 214, 4-(4-(isoquinolin-6-yl)phenyl)-N-(pyridin-3-yl)butanamide] | F (F is 81-100%) | < 500 nM
8 | Cc1ccc(C(=O)NCCCc2ccc(-c3ccc4c(cnn4C)c3)cc2)cn1 [Compound 226, 6-methyl-N-(3-(4-(1-methyl-1H-indazol-5-yl)phenyl)propyl)nicotinamide] | C (C is 41-60%) | < 500 nM
9 | Cc1cc(C(=O)NCCCc2ccc(-c3ccc4[nH]ncc4c3C)cc2)no1 [Compound 230, 5-methyl-N-(3-(4-(4-methyl-1H-indazol-5-yl)phenyl)propyl)isoxazole-3-carboxamide] | C (C is 41-60%) | < 500 nM
10 | Cn1ncc2cc(-c3ccc(CCCNC(=O)c4cnc(N)nc4)cc3)ccc21 [Compound 232, 2-amino-N-(3-(4-(1-methyl-1H-indazol-5-yl)phenyl)propyl)pyrimidine-5-carboxamide] | C (C is 41-60%) | < 500 nM
11 | Cc1cc(C(=O)NCCCc2ccc(-c3cnc4[nH]ccc4c3)cc2)n(C)n1 [Compound 233, N-(3-(4-(1H-pyrrolo[2,3-b]pyridin-5-yl)phenyl)propyl)-1,3-dimethyl-1H-pyrazole-5-carboxamide] | A (A is < 20%) | < 500 nM
12 | Cc1cc(C(=O)NCCCc2ccc(-c3ccc4ncccc4c3)cc2)no1 [Compound 239, 5-methyl-N-(3-(4-(quinolin-6-yl)phenyl)propyl)isoxazole-3-carboxamide] | C (C is 41-60%) | < 500 nM
13 | Cc1ccc(C(=O)NCCCc2ccc(-c3ccc4[nH]ncc4c3C)cc2)cn1 [Compound 243, 6-methyl-N-(3-(4-(4-methyl-1H-indazol-5-yl)phenyl)propyl)nicotinamide] | A (A is < 20%) | < 500 nM
14 | O=C(Nc1ccc2[nH]ccc2c1)N1CCN(c2ccc(-c3ccccc3F)cc2)CC1 [Compound 280, 4-(2′-fluoro-[1,1′-biphenyl]-4-yl)-N-(1H-indol-5-yl)piperazine-1-carboxamide] | F (F is 81-100%) | < 500 nM
15 | Cc1ncccc1C(=O)NCCCc1ccc(-c2ccc3c(c2)OCC(=O)N3)cc1 [Compound 314, 2-methyl-N-(3-(4-(3-oxo-3,4-dihydro-2H-benzo[b][1,4]oxazin-7-yl)phenyl)propyl)nicotinamide] | – | < 500 nM
16 | Cc1ccc(C(=O)NCCCc2ccc(-c3ccc4[nH]c(=O)ccc4c3)cc2)cn1 [Compound 315, 6-methyl-N-(3-(4-(2-oxo-1,2-dihydroquinolin-6-yl)phenyl)propyl)nicotinamide] | – | < 500 nM
17 | COc1ccc(CC(=O)NCCCc2ccc(-c3cnc4[nH]ccc4c3)cc2)cc1 [Compound 316, N-(3-(4-(1H-pyrrolo[2,3-b]pyridin-5-yl)phenyl)propyl)-2-(4-methoxyphenyl)acetamide] | – | < 500 nM
18 | COc1cccc(-c2ccc(CCCNC(=O)c3cccnc3C)cc2)c1F [Compound 317, N-(3-(2′-fluoro-3′-methoxy-[1,1′-biphenyl]-4-yl)propyl)-2-methylnicotinamide] | – | < 500 nM
19 | CC[C@]1(O)C[C@@H]2CN(CCc3c([nH]c4ccccc34)[C@@](C(=O)OC)(c3cc4c(cc3OC)N(C)[C@H]3[C@@](O)(C(=O)OC)[C@H](OC(C)=O)[C@]5(CC)C=CCN6CC[C@]43[C@@H]65)C2)C1 [Vinblastine, vinblastine, reference compound] | A (A is < 20%) | –
